The test relates to phosphorylation of Serine-9 residue in Glycogen Synthase Kinase-3beta as surrogate marker of cellular PKB (Akt) activity. Kind of test: In vitro MDA-MB-468 human breast adenocarcinoma GSK-3 phosphorylation assay. Format: cell-based. The conditions noted are these: MDA-MB-468 cells, 2 hours compound incubation, mean IC50, read-out: Cell pGSK3b IC50. From the text: This assay determines the ability of test compounds to inhibit phosphorylation of Serine-9 residue in Glycogen Synthase Kinase-3beta (GSK-313) as a surrogate marker of cellular PKB (Akt) activity, as assessed using Acumen Explorer Fluorescent Plate-Reader technology. A MDA-MB-468 human breast adenocarcinoma cell line (LGC Promochem, Teddington, Middlesex, UK, Catalogue No. HTB-132) was routinely maintained in Dulbecco's modified Eagle's growth medium (DMEM; Invitrogen Limited, Paisley, UK Catalogue No. 11966-025) containing 10% heat-inactivated foetal calf serum (FCS; Sigma, Poole, Dorset, UK, Catalogue No. F0392) and 1% L-glutamine (Gibco, Catalogue No. 25030-024) at 37° C. with 5% CO2 up to a confluency of 70-90%.
For the phosphorylation assay, the cells were detached from the culture flask using Trypsin-EDTA (Invitrogen Limited, Catalogue No. 25300-062) and seeded into the wells of a black transparent-bottom Corning Costar Polystyrene 96 well plate (Fisher Scientific UK, Loughborough, Leicestershire, UK; Catalogue No. 3904 and DPS-130-020K) at a density of 5000 cells per well in 100 μl of complete growth media. The cells were incubated overnight at 37° C. with 5% CO2 to allow them to adhere.
On day 2, the cells were treated with test compounds and incubated for 2 hours at 37° C. with 5% CO2. Test compounds were prepared as 10mM stock solutions in DMSO and dosed directly to required concentration into test wells using non-contact (acoustic dispensing of multiple 2.5 nl droplets directly into assay wells) ECHO dosing technology (Labcyte Inc Sunnyvale, Calif., USA). Each plate contained control wells without test compound.
20 μl of fixing buffer (Phosphate Buffered Saline (PBS) containing 10% formaldehyde; Sigma; Catalogue No. F1635) was then added to each well to give a final well concentration 1.6%. Plates were then incubated for 30 minutes at room temperature prior to the fixative being removed. Each well was washed once with 250 μl of PBS and then 50 μl PBS added to each well. PBS was then aspirated and cells permeabilised and blocked by incubating each well with 50 μl of permeabilisation/blocking buffer (PBS containing 0.5% Tween 20 (Sigma; Catalogue No. P5927) and 5% Marvel Milk Powder (Andrews Pharmacy Ltd, Macclesfield, Cheshire, UK; Catalogue No. APC100199)) for 1 hour at room temperature prior to staining.
Following removal of Perm/Block buffer, 50 μl of primary anti-phospho-GSK-3β antibody (Cell Signalling Technology (New England Biolabs (Uk) Ltd.), Hitchin, Hertfordshire, UK; Catalogue No.9336 diluted 1:400 in Blocking buffer (PBS containing 5% Marvel and 0.05% Tween/Polysorbate 20) was added to each well and incubated overnight at 4° C.
Each well was washed three times in 250 μl of wash buffer (PBS containing 0.05% polysorbate 20), and cells incubated for 1 hour at room temperature with 50 μl of secondary fluorescently-labelled anti-rabbit Alexa Fluor 488 antibody (Molecular Probes, Invitrogen Limited, Catalogue No. A11008) diluted 1:750 in blocking buffer. Plates were washed three times in 250 μl of wash buffer and stored containing 50 μl of PBS at 4° C. until required.
Plates were analysed using an Acumen Explorer Plate-reader to quantify level of fluorescent signal that represents quantity of phosphorylated-GSK-313.
IC50 calculation—IC50 is the concentration of compound required to give 50% effect over the range of activity affected by the compound, between maximum (no compound) and minimum (excess level of compound) response control data. IC50 values were determined by fitting background corrected, dose response assay data to a 4 parameter logistic curve fit equation model with the minimum response set to zero. This was done using an in-house developed algorithm within the Origin graphing software package (OriginLab Corporation, Northampton, Mass., USA). […]

What is called IC50 is the concentration at which inhibition is half-maximal. With `Cc1c[nH]c2ncnc(N3CCC(CN)(c4nc5ccccc5[nH]4)CC3)c12` [Example 47, (4-(1H-benzo[d]imidazol-2-yl)-1-(5-methyl-7H-pyrrolo[2,3-d]pyrimidin-4-yl)piperidin-4-yl)methanamine], the IC50 is 0.17 µM.

Regarding `NC1(c2nc3c(O)cccc3[nH]2)CCN(c2ncnc3[nH]ccc23)CC1` [Example 11, 2-[4-Amino-1-(7H-pyrrolo[2,3-d]pyrimidin-4-yl)-piperidin-4-yl]-1H-benzoimidazol-4-ol], the IC50 was 0.16 µM.

Turning to `CS(=O)(=O)c1ccc(-c2cccc3[nH]c(C4(N)CCN(c5ncnc6[nH]ncc56)CC4)nc23)cc1` [Example 110, 4-[4-(4-methylsulfonylphenyl)-1H-benzo[d]imidazol-2-yl)-1-(1H-pyrazolo[3,4-d]pyrimidin-4-yl)piperidin-4-amine], the IC50 was 0.49 µM.

Take `Cc1ccc2nc(C3(N)CCN(c4ncnc5[nH]ccc45)CC3)[nH]c2c1C` [Example 51, 4-(6,7-dimethyl-1H-benzimidazol-2-yl)-1-(7H-pyrrolo[2,3-d]pyrimidin-4-yl)piperidin-4-amine]: the IC50 came out at 0.8 µM.

In the case of `NC1(c2nc3c(Br)cccc3[nH]2)CCN(c2ncnc3[nH]ccc23)CC1` [Example 85, 4-(7-Bromo-1H-benzo[d]imidazol-2-yl)-1-(7H-pyrrolo[2,3-d]pyrimidin-4-yl)piperidin-4-amine], the half-maximal inhibitory concentration (IC50) turned out to be 0.35 µM.

`Cn1cc(-c2ccc3[nH]c(C4(N)CCN(c5ncnc6[nH]ccc56)CC4)nc3c2)cn1` [Example 74, 4-[5-(1-methylpyrazol-4-yl)-1H-benzimidazol-2-yl]-1-(7H-pyrrolo[2,3-d]pyrimidin-4-yl)piperidin-4-amine]: the IC50 was 3.7 µM.

On to `NC1(c2nc3c(-c4ccoc4)cccc3[nH]2)CCN(c2ncnc3[nH]ccc23)CC1` [Example 88, 4-[7-(3-furyl)-1H-benzimidazol-2-yl]-1-(7H-pyrrolo[2,3-d]pyrimidin-4-yl)piperidin-4-amine], for which the IC50 was 0.052 µM.

For the molecule `NC1(c2nc3c(-c4ccoc4)cccc3[nH]2)CCN(c2ncnc3[nH]ncc23)CC1` [Example 111, 4-(4-furan-3-yl-1H-benzo[d]imidazol-2-yl)-1-(1H-pyrazolo[3,4-d]pyrimidin-4-yl)piperidin-4-amine], the IC50 turned out to be 0.11 µM.

On to `CC(C)c1ccc2[nH]c(C3(N)CCN(c4ncnc5[nH]ccc45)CC3)nc2c1` [Example 62, 4(5-isopropyl-1H-benzo[d]imidazol-2-yl)-1-(7H-pyrrolo[2,3-d]pyrimidin-4-yl)piperidin-4-amine], for which the IC50 came out at 0.58 µM.

In the case of `NCC1(c2nc3c(-c4ccccc4)cccc3[nH]2)CCN(c2ncnc3[nH]ccc23)CC1` [Example 99, (4-(4-phenyl-1H-benzo[d]imidazol-2-yl)-1-(7H-pyrrolo[2,3-d]pyrimidin-4-yl)piperidin-4-yl)methanamine], the IC50 was 0.015 µM.

`NC1(c2nc3c(-c4cccnc4)cccc3[nH]2)CCN(c2ncnc3[nH]ccc23)CC1` [Example 79]: the IC50 came out at 0.085 µM.

As for `COc1ccc(-c2cccc3[nH]c(C4(N)CCN(c5ncnc6[nH]cnc56)CC4)nc23)cc1` [Example 104, 4-[4-(4-methoxyphenyl)-1H-benzimidazol-2-yl]-1-(9H-purin-6-yl)piperidin-4-amine], the half-inhibitory concentration (IC50) is 0.12 µM.

As for `NCc1cc(-c2cccc3[nH]c(C4(N)CCN(c5ncnc6[nH]ccc56)CC4)nc23)ccc1F` [Example 113, 4-(4-(3-(aminomethyl)-4-fluorophenyl)-1H-benzo[d]imidazol-2-yl)-1-(7H-pyrrolo[2,3-d]pyrimidin-4-yl)piperidin-4-amine], the IC50 was determined as 0.038 µM.

For `NCC1(c2nc3ccccc3[nH]2)CCN(c2ncnc3[nH]cc(Cl)c23)CC1` [Example 45, (4-(1H-benzo[d]imidazol-2-yl)-1-(5-chloro-7H-pyrrolo[2,3-d]pyrimidin-4-yl)piperidin-4-yl)methanamine], the IC50 stood at 0.087 µM.

In the case of `Cn1c(C2(N)CCN(c3ncnc4[nH]ccc34)CC2)nc2ccccc21` [Example 54, 4-(1-methylbenzimidazol-2-yl)-1-(7H-pyrrolo[2,3-d]pyrimidin-4-yl)piperidin-4-amine], the IC50 was > 2.6 µM.

The values are drawn from patent US20100093748A1, “SUBSTITUTED PIPERIDINES HAVING PROTEIN KINASE INHIBITING ACTIVITY” (ASTEX THERAPEUTICS LIMITED, priority 2006, published 2010).
